The assay has as its target T1, Y2 receptors (Homo sapiens, UniProt P49146).
T1 construct: endogenous in cells; host or cells: KAN-Ts cells (membranes)
T1 sequence (P49146 1-381): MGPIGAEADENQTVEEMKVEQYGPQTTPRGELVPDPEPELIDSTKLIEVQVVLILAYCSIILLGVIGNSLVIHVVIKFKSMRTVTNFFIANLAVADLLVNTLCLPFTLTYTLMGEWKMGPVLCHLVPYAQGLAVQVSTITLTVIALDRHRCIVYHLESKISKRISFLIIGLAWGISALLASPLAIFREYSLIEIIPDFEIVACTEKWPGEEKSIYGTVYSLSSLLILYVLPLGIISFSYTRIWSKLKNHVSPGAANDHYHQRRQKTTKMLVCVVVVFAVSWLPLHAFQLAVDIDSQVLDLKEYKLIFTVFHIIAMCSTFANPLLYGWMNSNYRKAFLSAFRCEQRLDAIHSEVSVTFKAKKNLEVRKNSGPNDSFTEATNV
The experiment in a line: Radioligand binding assay ([125I]PYY, KAN-Ts cell membranes). The following applies: average of results, read-out: IC50. The method, boiled down: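 IC50 values are means of three to eight experiments run in duplicate, fitted sigmoidally against specific binding (defined by […]). Competition used 80 pM [^125I]PYY for 1 h at room temperature on KAN-Ts membranes carrying native Y2, with filtration and scintillation counting.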

In patent US8183239B2, “Substituted piperazines and piperidines as modulators of the neuropeptide Y2 receptor” (Janssen Pharmaceutica NV, priority 2005, dated 2012) one finds IC50 data, which are given here for 29 compounds.

Where two headings read alike, the source gives them in different places.

The term IC50 denotes the concentration that inhibits the measured activity by half.

In the case of `CCN(CC)C(=O)C(c1ccccc1)N1CCN(c2ccc(NC(=O)C3(C)CCCCC3)cc2F)CC1` (centres unmarked) [Example 136, 1-Methyl-cyclohexanecarboxylic acid {4-[4-(diethylcarbamoyl-phenyl-methyl)-piperazin-1-yl]-3-fluoro-phenyl}-amide], the half-maximal inhibitory concentration (IC50) (Table 1, [125I]PYY 80 pM) was determined as 70 nM.

Consider `CC[C@H](C)C(=O)Nc1ccc(N2CCN(C(C(=O)N(CC)CC)c3ccccc3)CC2)c(F)c1` (stereo partly drawn) [Example 137, (S)—N-{4-[4-(Diethylcarbamoyl-phenyl-methyl)-piperazin-1-yl]-3-fluoro-phenyl}-2-methyl-butyramide], for which the IC50 (Table 1, [125I]PYY 80 pM) was found to be 70 nM.

Regarding `CCC(CC)C(=O)Nc1ccc(N2CCC(=C(C(=O)N(CC)CC)c3cccc(F)c3)CC2)c(F)c1` [Example 138, N-(4-{4-[Diethylcarbamoyl-(3-fluoro-phenyl)-methylene]-piperidin-1-yl}-3-fluoro-phenyl)-2-ethyl-butyramide], where the note is “Table 1, [125I]PYY 80 pM”, the IC50 was 70 nM.

Consider `CCN(CC)C(=O)C(c1ccccc1)N1CCN(c2ccc(NC(=O)C(C)(C)c3ccc(Cl)cc3)cc2F)CC1` (centres unmarked) [Example 139, 2-(4-Chloro-phenyl)-N-{4-[4-(diethylcarbamoyl-phenyl-methyl)-piperazin-1-yl]-3-fluoro-phenyl}-isobutyramide], for which the IC50 (Table 1, [125I]PYY 80 pM) was found to be 72 nM.

With `CCN(CC)C(=O)C(c1ccccc1)C1CCN(c2ccc(NC(=O)C(C)C)cc2F)CC1` (centres unmarked) [Example 140, N-{4-[4-(Diethylcarbamoyl-phenyl-methyl)-piperidin-1-yl]-3-fluoro-phenyl}-isobutyramide], the IC50 (Table 1, [125I]PYY 80 pM) worked out at 80 nM.

With `CCN(CC)C(=O)C(c1ccccc1)C1CCN(c2ccc(NC(=O)c3cccnc3SC)cc2F)CC1` (centres unmarked) [Example 141, N-{4-[4-(Diethylcarbamoyl-phenyl-methyl)-piperidin-1-yl]-3-fluoro-phenyl}-2-methylsulfanyl-nicotinamide], for the setting “Table 1, [125I]PYY 80 pM”, the IC50 came out at 80 nM.

For `CCNC(=O)C(c1ccccc1)C1CCN(c2c(F)cc(NC(=O)C(CC)CC)cc2F)CC1` (centres unmarked) [Example 142, 2-Ethyl-N-{4-[4-(ethylcarbamoyl-phenyl-methyl)-piperidin-1-yl]-3,5-difluoro-phenyl}-butyramide], the IC50 (Table 1, [125I]PYY 80 pM) worked out at 75 nM.

On to `CCN(CC)C(=O)C(c1ccccc1)N1CCN(c2ccc(NC(=O)C3CCCC3)cc2F)CC1` (centres unmarked) [Example 143, Cyclopentanecarboxylic acid {4-[4-(diethylcarbamoyl-phenyl-methyl)-piperazin-1-yl]-3-fluoro-phenyl}-amide], for which the IC50 (Table 1, [125I]PYY 80 pM) was 80 nM.

`CCN(CC)C(=O)C(c1ccccc1)C1CCN(c2ccc(NC(=O)c3ccsc3C)cc2F)CC1` (centres unmarked) [Example 144, 2-Methyl-thiophene-3-carboxylic acid {4-[4-(diethylcarbamoyl-phenyl-methyl)-piperidin-1-yl]-3-fluoro-phenyl}-amide]: the IC50 (Table 1, [125I]PYY 80 pM) was determined as 100 nM.

For the compound `CCN(CC)C(=O)C(c1ccccc1)C1CCN(c2ccc(NC(=O)c3cccn3C)cc2F)CC1` (centres unmarked) [Example 145, 1-Methyl-1H-pyrrole-2-carboxylic acid {4-[4-(diethylcarbamoyl-phenyl-methyl)-piperidin-1-yl]-3-fluoro-phenyl}-amide], the IC50 (Table 1, [125I]PYY 80 pM) amounted to 100 nM.

As to `CCC(CC)C(=O)Nc1ccc(N2CCN(C(C(=O)OC)c3cc(F)cc(F)c3)CC2)c(F)c1` (centres unmarked) [Example 146, (3,5-Difluoro-phenyl)-{4-[4-(2-ethyl-butyrylamino)-2-fluoro-phenyl]-piperazin-1-yl}-acetic acid methyl ester], the IC50 (Table 1, [125I]PYY 80 pM) is 115 nM.

For the compound `CCNC(=O)C(c1ccccc1)C1CCN(c2ccc(NC(=O)C3(C)CCCCC3)cc2C#N)CC1` (centres unmarked) [Example 147, 1-Methyl-cyclohexanecarboxylic acid {3-cyano-4-[4-(ethylcarbamoyl-phenyl-methyl)-piperidin-1-yl]-phenyl}-amide], where the note is “Table 1, [125I]PYY 80 pM”, the IC50 worked out at 100 nM.

With `CCNC(=O)C(c1ccccc1)C1CCN(c2ccc(NC(=O)[C@@H]3CCOC3)cc2C#N)CC1` (stereo partly drawn) [Example 148, (R)-Tetrahydro-furan-3-carboxylic acid {3-cyano-4-[4-(ethylcarbamoyl-phenyl-methyl)-piperidin-1-yl]-phenyl}-amide], the IC50 (Table 1, [125I]PYY 80 pM) worked out at 120 nM.

For `CCN(CC)C(=O)C(c1ccccc1)C1CCN(c2ccc(NC(=O)c3ccccc3SC)cc2F)CC1` (centres unmarked) [Example 149, N-{4-[4-(Diethylcarbamoyl-phenyl-methyl)-piperidin-1-yl]-3-fluoro-phenyl}-2-methylsulfanyl-benzamide], the IC50 (Table 1, [125I]PYY 80 pM) came to 110 nM.

As to `O=C(Nc1ccc(N2CCN(C(C(=O)N3CCC(F)(F)C3)c3ccccc3)CC2)c(F)c1)[C@H]1CCOC1` (stereo partly drawn) [Example 151, (S)-Tetrahydro-furan-3-carboxylic acid (4-{4-[2-(3,3-difluoro-pyrrolidin-1-yl)-2-oxo-1-phenyl-ethyl]-piperazin-1-yl}-3-fluoro-phenyl)-amide], the IC50 (Table 1, [125I]PYY 80 pM) was found to be 140 nM.

In the case of `CCN(CC)C(=O)C(c1ccccc1)N1CCN(c2ccc(NC(=O)C3C(C)(C)C3(C)C)cc2F)CC1` (centres unmarked) [Example 152, 2,2,3,3-Tetramethyl-cyclopropanecarboxylic acid {4-[4-(diethylcarbamoyl-phenyl-methyl)-piperazin-1-yl]-3-fluoro-phenyl}-amide], under “Table 1, [125I]PYY 80 pM”, the IC50 is 170 nM.

Turning to `CCC(CC)C(=O)Nc1ccc(N2CCN(C(C(=O)N(CC)CC)c3cc(F)ccc3Br)CC2)c(F)c1` (centres unmarked) [Example 153, N-(4-{4-[(2-Bromo-5-fluoro-phenyl)-diethylcarbamoyl-methyl]-piperazin-1-yl}-3-fluoro-phenyl)-2-ethyl-butyramide], the IC50 (Table 1, [125I]PYY 80 pM) is 142 nM.

Turning to `CCN(CC)C(=O)C(c1ccccc1)C1CCN(c2ccc(NC(=O)Cc3cc(C)ccc3C)cc2F)CC1` (centres unmarked) [Example 154, 2-(1-{4-[2-(2,5-Dimethyl-phenyl)-acetylamino]-2-fluoro-phenyl}-piperidin-4-yl)-N,N-diethyl-2-phenyl-acetamide], the IC50 (Table 1, [125I]PYY 80 pM) was 220 nM.

Consider `CCC(CC)C(=O)Nc1ccc(N2CCN(C(C(=O)N(CC)CC)c3ccc(F)cc3)CC2)c(F)c1` (centres unmarked) [Example 155, N-(4-{4-[Diethylcarbamoyl-(4-fluoro-phenyl)-methyl]-piperazin-1-yl}-3-fluoro-phenyl)-2-ethyl-butyramide], for which, where the note is “Table 1, [125I]PYY 80 pM”, the IC50 was 200 nM.

In the case of `CCN(CC)C(=O)C(c1ccccc1)C1CCN(c2ccc(NC(=O)Cc3c(F)cccc3F)cc2F)CC1` (centres unmarked) [Example 156, 2-(1-{4-[2-(2,6-Difluoro-phenyl)-acetylamino]-2-fluoro-phenyl}-piperidin-4-yl)-N,N-diethyl-2-phenyl-acetamide], the IC50 (Table 1, [125I]PYY 80 pM) came to 230 nM.

As to `CCN(CC)C(=O)C(c1ccccc1)C1CCN(c2ccc(NC(=O)c3cc(C)ccc3C)cc2F)CC1` (centres unmarked) [Example 157, N-{4-[4-(Diethylcarbamoyl-phenyl-methyl)-piperidin-1-yl]-3-fluoro-phenyl}-2,5-dimethyl-benzamide], the IC50 (Table 1, [125I]PYY 80 pM) was 235 nM.

On to `CCC(CC)C(=O)Nc1ccc(N2CCN(C(C(=O)N3CCC(F)(F)CC3)c3ccc(F)cc3)CC2)c(F)c1` (centres unmarked) [Example 158, N-(4-{4-[2-(4,4-Difluoro-piperidin-1-yl)-1-(4-fluoro-phenyl)-2-oxo-ethyl]-piperazin-1-yl}-3-fluoro-phenyl)-2-ethyl-butyramide], for which the IC50 (Table 1, [125I]PYY 80 pM) was determined as 240 nM.

Take `CCNC(=O)C(c1cccc(F)c1)N1CCN(c2ccc(NC(=O)C(CC)CC)cc2F)CC1` (centres unmarked) [Example 159, 2-Ethyl-N-(4-{4-[ethylcarbamoyl-(3-fluoro-phenyl)-methyl]-piperazin-1-yl}-3-fluoro-phenyl)-butyramide]: the IC50 (Table 1, [125I]PYY 80 pM) is 250 nM.

With `CCN(CC)C(=O)C(c1ccccc1)C1CCN(c2ccc(NC(=O)c3ccccc3N)cc2F)CC1` (centres unmarked) [Example 160, 2-Amino-N-{4-[4-(diethylcarbamoyl-phenyl-methyl)-piperidin-1-yl]-3-fluoro-phenyl}-benzamide], the IC50 (Table 1, [125I]PYY 80 pM) came out at 260 nM.

As for `CCN(CC)C(=O)C(c1ccccc1)N1CCN(c2ccc(NC(=O)CC3CC3)cc2F)CC1` (centres unmarked) [Example 161, 2-{4-[4-(2-Cyclopropyl-acetylamino)-2-fluoro-phenyl]-piperazin-1-yl}-N,N-diethyl-2-phenyl-acetamide], the IC50 (Table 1, [125I]PYY 80 pM) turned out to be 300 nM.

On to `CCN(CC)C(=O)C(c1ccccc1)N1CCN(c2ccc(NC(=O)Cc3ccccc3OC)cc2F)CC1` (centres unmarked) [Example 162, N,N-Diethyl-2-(4-{2-fluoro-4-[2-(2-methoxy-phenyl)-acetylamino]-phenyl}-piperazin-1-yl)-2-phenyl-acetamide], for which the IC50 (Table 1, [125I]PYY 80 pM) turned out to be 300 nM.

As for `CCN(CC)C(=O)C(c1ccccc1)C1CCN(c2ccc(NC(=O)c3cnoc3C)cc2F)CC1` (centres unmarked) [Example 163, 5-Methyl-isoxazole-4-carboxylic acid {4-[4-(diethylcarbamoyl-phenyl-methyl)-piperidin-1-yl]-3-fluoro-phenyl}-amide], under “Table 1, [125I]PYY 80 pM”, the IC50 turned out to be 300 nM.

For the compound `CCCS(=O)(=O)Nc1ccc(N2CCN(C(C(=O)N(CC)CC)c3ccccc3)CC2)c(F)c1` (centres unmarked) [Example 165, N,N-Diethyl-2-{4-[2-fluoro-4-(propane-1-sulfonylamino)-phenyl]-piperazin-1-yl}-2-phenyl-acetamide], for the setting “Table 2, [125I]PYY 80 pM”, the IC50 amounted to 1100 nM.

For `CCCS(=O)(=O)N(c1ccc(N2CCN(C(C(=O)N(CC)CC)c3ccccc3)CC2)c(F)c1)S(=O)(=O)CCC` (centres unmarked) [Example 166, N-{4-[4-(Diethylcarbamoyl-phenyl-methyl)-piperazin-1-yl]-3-fluoro-phenyl}-N-dipropanesulfonanilide], the IC50 (Table 2, [125I]PYY 80 pM) was 560 nM.
